In US20230183292A1, “IMMUNOMODULATORS” (priority 2020, published 2023):
Where two headings read alike, the source gives them in different places. Starred links: 1 amine or outer side, 2 acyl side, 3 side chain; linkers in the order of their positions; H or OH if unused. Positions of bridges follow the written chain, without caps; N, C: chain ends. Non-standard residues stand in square brackets, D forms with d. Residues, ends and D or L forms follow the SMILES beside them. *: point of attachment. Chenodeoxycholyl = C[C@H](CCC(=O)*)[C@H]1CC[C@H]2[C@@H]3[C@H](O)C[C@@H]4C[C@H](O)CC[C@]4(C)[C@H]3CC[C@]12C; Cholyl = C[C@H](CCC(=O)*)[C@H]1CC[C@H]2[C@@H]3[C@H](O)C[C@@H]4C[C@H](O)CC[C@]4(C)[C@H]3C[C@H](O)[C@]12C; X14 = C[C@H](CCC(=O)*)[C@H]1CC[C@H]2[C@H]3C(C[C@H](O)[C@]12C)[C@@]1(C)CC[C@@H](O)C[C@H]1C[C@H]3O; X18 = CCN(CC)CCCNC(=O)Cn1cc(C[C@H](N[*:1])C(=O)[*:2])c2ccccc21; X13 = CC(C)CNC(=O)Cn1cc(C[C@H](N[*:1])C(=O)[*:2])c2ccccc21; X31 = CCOC(=O)Cn1cc(C[C@H](N[*:1])C(=O)[*:2])c2ccccc21; Hyp = O=C(O)[C@@H]1C[C@@H](O)CN1; NMeNle = CCCC[C@H](NC)C(=O)O; NMeA = CN[C@@H](C)C(=O)O; Dab = NCC[C@H](N)C(=O)O; Dap = NC[C@H](N)C(=O)O

Target: T1, PD-1/PD-L1 (Homo sapiens, UniProt Q9NZQ7)
T1 construct: TVMV protease site (C); made in house; host or cells: HEK293T cells
T1 sequence (Q9NZQ7 18-239): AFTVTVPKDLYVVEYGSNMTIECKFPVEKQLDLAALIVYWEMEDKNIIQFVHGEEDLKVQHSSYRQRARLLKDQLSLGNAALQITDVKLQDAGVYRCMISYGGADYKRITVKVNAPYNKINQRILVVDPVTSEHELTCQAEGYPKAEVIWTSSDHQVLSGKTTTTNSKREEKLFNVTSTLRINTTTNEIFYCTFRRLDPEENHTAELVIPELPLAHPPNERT
Assay: PD-1/PD-L1 Homogenous Time-Resolved Fluorescence (HTRF) binding assay
Conditions: PD-1-Ig 20 nM
Excerpt: The ability of the compounds of formula (I) to bind to PD-L1 was investigated using a PD-1/PD-L1 Homogenous Time-Resolved Fluorescence (HTRF) binding assay.
The interaction of PD-1 and PD-L1 can be assessed using soluble, purified preparations of the extracellular domains of the two proteins. The PD-1 and PD-L1 protein extracellular domains were expressed as fusion proteins with detection tags, for PD-1, the tag was the Fc portion of Immunoglobulin (PD-1-Ig) and for PD-L1 it was the 6 histidine motif (PD-L1-His). All binding studies were performed in an HTRF assay buffer consisting of dPBS supplemented with 0.1% […] bovine serum albumin and 0.05% (v/v) Tween-20. For the h/PD-L1-His binding assay, inhibitors were pre-incubated with PD-L1-His (10 nM final) for 15 m in 4 μl of assay buffer, followed by addition of PD-1-Ig (20 nM final) in 1 μl of assay buffer and further incubation for 15 m. HTRF detection was achieved using europium crypate-labeled anti-Ig (1 nM final) and allophycocyanin (APC) labeled anti-His (20 nM final). Antibodies were diluted in HTRF detection buffer and 5 μl was dispensed on top of the binding reaction. The reaction mixture was allowed to equilibrate for 30 minutes and the resulting signal (665 nm/620 nm ratio) was obtained using an EnVision fluorometer. Additional binding assays were established between the human proteins PD-1-Ig/PD-L2-His (20 & 5 nM, respectively) and CD80-His/PD-L1-Ig (100 & 10 nM, respectively).
Recombinant Proteins: Human PD-1 (25-167) with a C-terminal human Fc domain of immunoglobulin G (Ig) epitope tag [hPD-1 (25-167)-3S-IG] and human PD-L1 (18-239) with a C-terminal His epitope tag [hPD-L1(18-239)-TVMV-His] were expressed in HEK293T cells and purified sequentially by ProteinA affinity chromatography and size exclusion chromatography. Human PD-L2-His and CD80-His was obtained through commercial sources.
Table 1 lists the IC50 values for representative examples of this disclosure measured in the PD-1/PD-L1 Homogenous Time-Resolved Fluorescence (HTRF) binding assay.

[1] = PD-L1-His 10 nM, read-out: HTRF IC50

SMILES	IC50 [1]	IC50 (HTRF IC50, PD-L1-His 10 nM)
CCCC[C@H]1C(=O)N(C)[C@@H](CCCC)C(=O)N[C@@H](CC(C)C)C(=O)N[C@H](C(=O)NCC(N)=O)CSCC(=O)N[C@@H](Cc2ccc(O)cc2)C(=O)N(C)[C@@H](C)C(=O)N[C@@H](CC(N)=O)C(=O)N2CCC[C@H]2C(=O)N[C@@H](CNC(=O)CC[C@@H](C)[C@H]2CC[C@H]3[C@@H]4[C@H](O)C[C@@H]5C[C@H](O)CC[C@]5(C)[C@H]4CC[C@]23C)C(=O)N[C@@H](CC(C)C)C(=O)N2C[C@H](O)C[C@H]2C(=O)N[C@@H](Cc2c[nH]c3ccccc23)C(=O)N[C@@H](CCNC(=O)CC[C@@H](C)[C@H]2CC[C@H]3[C@@H]4[C@H](O)C[C@@H]5C[C@H](O)CC[C@]5(C)[C@H]4CC[C@]23C)C(=O)N[C@@H](Cc2cn(CC(=O)OCC)c3ccccc23)C(=O)N1C [Example 2001] ({CH2CO}-Y[NMeA]NP[Dap](Chenodeoxycholyl)L[Hyp]W[Dab](Chenodeoxycholyl)[X31][NMeNle][NMeNle]LCG-NH2; thioether N-14)	220 nM	–
CCCC[C@H]1C(=O)N(C)[C@@H](CCCC)C(=O)N[C@@H](CC(C)C)C(=O)N[C@H](C(=O)NCC(N)=O)CSCC(=O)N[C@@H](Cc2ccc(O)cc2)C(=O)N(C)[C@@H](C)C(=O)N[C@@H](CC(N)=O)C(=O)N2CCC[C@H]2C(=O)N[C@@H](CNC(=O)CC[C@@H](C)[C@H]2CC[C@H]3[C@@H]4[C@H](O)C[C@@H]5C[C@H](O)CC[C@]5(C)[C@H]4C[C@H](O)[C@]23C)C(=O)N[C@@H](CC(C)C)C(=O)N2C[C@H](O)C[C@H]2C(=O)N[C@@H](Cc2c[nH]c3ccccc23)C(=O)N[C@@H](CCNC(=O)CC[C@@H](C)[C@H]2CC[C@H]3[C@H]4C(C[C@H](O)[C@]23C)[C@@]2(C)CC[C@@H](O)C[C@H]2C[C@H]4O)C(=O)N[C@@H](Cc2cn(CC(=O)NCC(C)C)c3ccccc23)C(=O)N1C (stereo partly drawn) [Example 2002] ({CH2CO}-Y[NMeA]NP[Dap](Cholyl)L[Hyp]W[Dab](X14)[X13][NMeNle][NMeNle]LCG-NH2; thioether N-14)	3300 nM	–
CCCC[C@H]1C(=O)N(C)[C@@H](CCCC)C(=O)N[C@@H](CC(C)C)C(=O)N[C@H](C(=O)NCC(N)=O)CSCC(=O)N[C@@H](Cc2ccc(O)cc2)C(=O)N(C)[C@@H](C)C(=O)N[C@@H](CC(N)=O)C(=O)N2CCC[C@H]2CN[C@@H](CNC(=O)CC[C@@H](C)[C@H]2CC[C@H]3[C@@H]4[C@H](O)C[C@@H]5C[C@H](O)CC[C@]5(C)[C@H]4C[C@H](O)[C@]23C)C(=O)N[C@@H](CC(C)C)C(=O)N2C[C@H](O)C[C@H]2C(=O)N[C@@H](Cc2c[nH]c3ccccc23)C(=O)N[C@@H](CCNC(=O)CC[C@@H](C)[C@H]2CC[C@H]3[C@@H]4[C@H](O)C[C@@H]5C[C@H](O)CC[C@]5(C)[C@H]4C[C@H](O)[C@]23C)C(=O)N[C@@H](Cc2cn(CC(=O)OC3CC3)c3ccccc23)C(=O)N1C [Example 2003]	970 nM	–
CCCC[C@H]1C(=O)N(C)[C@@H](CCCC)C(=O)N[C@@H](CC(C)C)C(=O)N[C@H](C(=O)NCC(N)=O)CSCC(=O)N[C@@H](Cc2ccc(O)cc2)C(=O)N(C)[C@@H](C)C(=O)N[C@@H](CC(N)=O)C(=O)N2CCC[C@H]2CN[C@@H](CNC(=O)CC[C@@H](C)[C@H]2CC[C@H]3[C@@H]4[C@H](O)C[C@@H]5C[C@H](O)CC[C@]5(C)[C@H]4C[C@H](O)[C@]23C)C(=O)N[C@@H](CC(C)C)C(=O)N2C[C@H](O)C[C@H]2C(=O)N[C@@H](Cc2c[nH]c3ccccc23)C(=O)N[C@@H](CCNC(=O)CC[C@@H](C)[C@H]2CC[C@H]3[C@@H]4[C@H](O)C[C@@H]5C[C@H](O)CC[C@]5(C)[C@H]4C[C@H](O)[C@]23C)C(=O)N[C@@H](Cc2cn(CC(=O)OCCCO)c3ccccc23)C(=O)N1C [Example 2004]	350 nM	–
CCCC[C@H]1C(=O)N(C)[C@@H](CCCC)C(=O)N[C@@H](CC(C)C)C(=O)N[C@H](C(=O)NCC(N)=O)CSCC(=O)N[C@@H](Cc2ccc(O)cc2)C(=O)N(C)[C@@H](C)C(=O)N[C@@H](CC(N)=O)C(=O)N2CCC[C@H]2CN[C@@H](CNC(=O)CC[C@@H](C)[C@H]2CC[C@H]3[C@@H]4[C@H](O)C[C@@H]5C[C@H](O)CC[C@]5(C)[C@H]4C[C@H](O)[C@]23C)C(=O)N[C@@H](CC(C)C)C(=O)N2C[C@H](O)C[C@H]2C(=O)N[C@@H](Cc2c[nH]c3ccccc23)C(=O)N[C@@H](CCNC(=O)CC[C@@H](C)[C@H]2CC[C@H]3[C@@H]4[C@H](O)C[C@@H]5C[C@H](O)CC[C@]5(C)[C@H]4C[C@H](O)[C@]23C)C(=O)N[C@@H](Cc2cn(CC(=O)OCCO)c3ccccc23)C(=O)N1C [Example 2005]	210 nM	–
CCCC[C@H]1C(=O)N(C)[C@@H](CCCC)C(=O)N[C@@H](CC(C)C)C(=O)N[C@H](C(=O)NCC(N)=O)CSCC(=O)N[C@@H](Cc2ccc(O)cc2)C(=O)N(C)[C@@H](C)C(=O)N[C@@H](CC(N)=O)C(=O)N2CCC[C@H]2CN[C@@H](CNC(=O)CC[C@@H](C)[C@H]2CC[C@H]3[C@@H]4[C@H](O)C[C@@H]5C[C@H](O)CC[C@]5(C)[C@H]4C[C@H](O)[C@]23C)C(=O)N[C@@H](CC(C)C)C(=O)N2C[C@H](O)C[C@H]2C(=O)N[C@@H](Cc2c[nH]c3ccccc23)C(=O)N[C@@H](CCNC(=O)CC[C@@H](C)[C@H]2CC[C@H]3[C@@H]4[C@H](O)C[C@@H]5C[C@H](O)CC[C@]5(C)[C@H]4C[C@H](O)[C@]23C)C(=O)N[C@@H](Cc2cn(CC(=O)OCCOCCO)c3ccccc23)C(=O)N1C [Example 2006]	200 nM	–
CCCC[C@H]1C(=O)N(C)[C@@H](CCCC)C(=O)N[C@@H](CC(C)C)C(=O)N[C@H](C(=O)NCC(N)=O)CSCC(=O)N[C@@H](Cc2ccc(O)cc2)C(=O)N(C)[C@@H](C)C(=O)N[C@@H](CC(N)=O)C(=O)N2CCC[C@H]2CN[C@@H](CNC(=O)CC[C@@H](C)[C@H]2CC[C@H]3[C@@H]4[C@H](O)C[C@@H]5C[C@H](O)CC[C@]5(C)[C@H]4C[C@H](O)[C@]23C)C(=O)N[C@@H](CC(C)C)C(=O)N2C[C@H](O)C[C@H]2C(=O)N[C@@H](Cc2c[nH]c3ccccc23)C(=O)N[C@@H](CCNC(=O)CC[C@@H](C)[C@H]2CC[C@H]3[C@@H]4[C@H](O)C[C@@H]5C[C@H](O)CC[C@]5(C)[C@H]4C[C@H](O)[C@]23C)C(=O)N[C@@H](Cc2cn(CC(=O)Oc3ccccc3)c3ccccc23)C(=O)N1C [Example 2007]	–	720 nM
CCCC[C@H]1C(=O)N(C)[C@@H](CCCC)C(=O)N[C@@H](CC(C)C)C(=O)N[C@H](C(=O)NCC(N)=O)CSCC(=O)N[C@@H](Cc2ccc(O)cc2)C(=O)N(C)[C@@H](C)C(=O)N[C@@H](CC(N)=O)C(=O)N2CCC[C@H]2C(=O)N[C@@H](CNC(=O)CC[C@@H](C)[C@H]2CC[C@H]3[C@@H]4[C@H](O)C[C@@H]5C[C@H](O)CC[C@]5(C)[C@H]4C[C@H](O)[C@]23C)C(=O)N[C@@H](CC(C)C)C(=O)N2C[C@H](O)C[C@H]2C(=O)N[C@@H](Cc2c[nH]c3ccccc23)C(=O)N[C@@H](CCNC(=O)CC[C@@H](C)[C@H]2CC[C@H]3[C@@H]4[C@H](O)C[C@@H]5C[C@H](O)CC[C@]5(C)[C@H]4C[C@H](O)[C@]23C)C(=O)N[C@@H](Cc2cn(CC(=O)NCCCN(CC)CC)c3ccccc23)C(=O)N1C [Example 2008] ({CH2CO}-Y[NMeA]NP[Dap](Cholyl)L[Hyp]W[Dab](Cholyl)[X18][NMeNle][NMeNle]LCG-NH2; thioether N-14)	95 nM	–
CCCC[C@H]1C(=O)N(C)[C@@H](CCCC)C(=O)N[C@@H](CC(C)C)C(=O)N[C@H](C(=O)NCC(N)=O)CSCC(=O)N[C@@H](Cc2ccc(O)cc2)C(=O)N(C)[C@@H](C)C(=O)N[C@@H](CC(N)=O)C(=O)N2CCC[C@H]2CN[C@@H](CNC(=O)CC[C@@H](C)[C@H]2CC[C@H]3[C@@H]4[C@H](O)C[C@@H]5C[C@H](O)CC[C@]5(C)[C@H]4C[C@H](O)[C@]23C)C(=O)N[C@@H](CC(C)C)C(=O)N2C[C@H](O)C[C@H]2C(=O)N[C@@H](Cc2c[nH]c3ccccc23)C(=O)N[C@@H](CCNC(=O)CC[C@@H](C)[C@H]2CC[C@H]3[C@@H]4[C@H](O)C[C@@H]5C[C@H](O)CC[C@]5(C)[C@H]4C[C@H](O)[C@]23C)C(=O)N[C@@H](Cc2cn(CC(=O)NC3CC3)c3ccccc23)C(=O)N1C [Example 2009]	2900 nM	–
